Laboratory results published in PMC5142624, “Reduced Activity of Mutant Calcium-Dependent Protein Kinase 1 Is Compensated in Plasmodium falciparum through the Action of Protein Kinase G” (mBio, 2016).

Assays:
[1] = tested on: wild-type T. gondii parasites; parameters: method as in PMID 20436472, PMID 20485436; details: cited from earlier work
[2] = molecular target: T1, recombinant PfCDPK1 T145M (Plasmodium falciparum, UniProt P62344, T145M); assay: BKI library screening, in vitro kinase assay (KinaseGlo); assay type: biochemical; details: methionine gatekeeper mutant T145M; 10 µM ATP, 90 min at 30°C; read-out: PfCDPK1Met IC50
T1 construct: Full-length CDPK1 WT and five mutant proteins with different substitutions at the gatekeeper position (residue 145) were expressed in E. coli; made in house; host or cells: Escherichia coli BLR(DE3)pLysS, pGEX4T1
Description: (§1) Recombinant PfCDPK1 WT and PfCDPK1 T145M were used in the in vitro kinase assay to calculate the IC50s for the library of bumped kinase inhibitors. Thirty-one BKIs belonging to the pyrazolopyrimidine scaffold were screened ([18][–][21]). Protein kinase activity of recombinant enzymes was assayed using 20 µM synthetic peptide substrate […] […] These reactions were performed in a buffered solution containing 1 mM EGTA (pH 7.2), 10 mM MgCl2, 20 mM HEPES (pH 7.5), 0.1% BSA, and enzyme activation reagent containing 2 mM CaCl2. The reactions were initiated with addition of 10 µM ATP, and the reaction mixtures were incubated for 90 min at 30°C. […] The KinaseGlo (Promega, Madison, WI) luminescence-based assay, in which luminescence is inversely related to kinase activity and directly related to […], was used as previously described ([21]).

CDPK1 T145M parasites = assay: Asexual parasite growth inhibition (SYBR green I assay); assay type: cell-based, Plasmodium falciparum; details: BKIs
Description: The parasites were electroporated as described earlier ([39]). Briefly, the ring-stage parasites at ~5% parasitemia were electroporated with 50 μg each of pL6CK1Met or pL6CK1Ser plasmid and pUF1 plasmid with the settings of 0.31 kV, 960 μF, and maximum capacitance on a Bio-Rad Gene Pulser II. WR99210 and DSM267 ([40]) were applied at the concentrations of 2 and 150 nM, respectively, after 24 h of transfection. The transgenic PfCDPK1 T145M parasites were cloned by limiting dilution in a 96-well plate. The PfCDPK1 gene sequence was amplified using primers ck1f1 (5′ […] 3′) and ck1r3wt (5′ […] 3′) specific for the region outside the homology arm of the plasmid, and the desired mutation was confirmed by DNA sequencing.
Asexual parasites were synchronized for two consecutive cycles by sorbitol treatment ([41]) and set up at 0.2% trophozoite stage (30 to 36 h postinvasion) in a 96-well plate. The growth progression was monitored for 7 days, and the growth rate of the parasites was calculated by sampling the culture every 24 h and measuring the fluorescence readout using the SYBR green I assay as described earlier ([42], [43]).

[3] = molecular target: recombinant P. falciparum cGMP-dependent protein kinase (PfPKG) (Plasmodium falciparum, UniProt Q8I719); assay: PfPKG in vitro kinase activity assay (luminescence); assay type: biochemical; details: 2 µM ATP, 20 µM cGMP, 2 h at 30°C; read-out: IC50 (SD) for PfPKG
Description: Compound efficacy against recombinant P. falciparum cGMP-dependent protein kinase (PfPKG) was determined using a novel nonradioactive and high-throughput assay. This assay evaluates protein kinase activity by measuring changes in […] ATP concentration via luminescence after PfPKG enzyme phosphorylation of a peptide substrate, PKCtide ([…]) (SignalChem, Richmond, BC, Canada). The in vitro kinase assay was set up with 26 µM PKCtide, 30 nM PfPKG, and 20 µM cGMP in a buffered solution containing 20 mM β-glycerol phosphate, 20 mM MgCl2, 25 mM HEPES (pH 7.5) (KOH), 0.1% bovine serum albumin (BSA), and 2 mM DTT ([37]). The reaction was initiated with addition of 2 µM ATP. The reaction mixture was incubated at 30°C and 90-rpm agitation for 2 h. Reaction wells with no PfPKG, no peptide substrate, and no cGMP were included in each assay plate as internal negative controls.

recombinant PfCDPK1 WT [4] = molecular target: T2, recombinant PfCDPK1 WT (Plasmodium falciparum, UniProt P62344); assay: BKI library screening, in vitro kinase assay (KinaseGlo); assay type: biochemical; details: 10 µM ATP, 90 min at 30°C; two independent experiments in triplicate
T2 construct: made in house; host or cells: Escherichia coli BLR(DE3)pLysS, pGEX4T1
Description: as §1

recombinant PfCDPK1 WT [5] = assay: as above; assay type: biochemical, Plasmodium falciparum; details: PfCDPK1 WT vs T145M recombinant enzymes
Description: as §1

[6] = tested on: wild-type parasites (P. falciparum NF54); assay: Asexual parasite growth inhibition (SYBR green I assay); assay type: cell-based, Plasmodium falciparum; details: BKIs

T1 sequence (P62344 whole entry T145M): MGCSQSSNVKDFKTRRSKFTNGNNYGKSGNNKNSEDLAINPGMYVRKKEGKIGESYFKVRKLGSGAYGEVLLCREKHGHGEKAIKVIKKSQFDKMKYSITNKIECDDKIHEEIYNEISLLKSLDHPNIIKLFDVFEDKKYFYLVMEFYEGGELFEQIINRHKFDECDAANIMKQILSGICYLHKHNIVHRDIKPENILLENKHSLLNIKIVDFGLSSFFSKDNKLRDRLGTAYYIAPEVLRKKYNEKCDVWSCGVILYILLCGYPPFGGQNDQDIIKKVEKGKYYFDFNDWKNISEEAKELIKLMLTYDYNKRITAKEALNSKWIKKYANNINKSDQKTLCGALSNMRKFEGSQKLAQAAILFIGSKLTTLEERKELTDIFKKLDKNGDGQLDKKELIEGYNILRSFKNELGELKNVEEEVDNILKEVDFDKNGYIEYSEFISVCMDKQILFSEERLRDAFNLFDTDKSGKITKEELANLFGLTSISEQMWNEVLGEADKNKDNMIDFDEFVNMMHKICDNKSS
T2 sequence (P62344 whole entry): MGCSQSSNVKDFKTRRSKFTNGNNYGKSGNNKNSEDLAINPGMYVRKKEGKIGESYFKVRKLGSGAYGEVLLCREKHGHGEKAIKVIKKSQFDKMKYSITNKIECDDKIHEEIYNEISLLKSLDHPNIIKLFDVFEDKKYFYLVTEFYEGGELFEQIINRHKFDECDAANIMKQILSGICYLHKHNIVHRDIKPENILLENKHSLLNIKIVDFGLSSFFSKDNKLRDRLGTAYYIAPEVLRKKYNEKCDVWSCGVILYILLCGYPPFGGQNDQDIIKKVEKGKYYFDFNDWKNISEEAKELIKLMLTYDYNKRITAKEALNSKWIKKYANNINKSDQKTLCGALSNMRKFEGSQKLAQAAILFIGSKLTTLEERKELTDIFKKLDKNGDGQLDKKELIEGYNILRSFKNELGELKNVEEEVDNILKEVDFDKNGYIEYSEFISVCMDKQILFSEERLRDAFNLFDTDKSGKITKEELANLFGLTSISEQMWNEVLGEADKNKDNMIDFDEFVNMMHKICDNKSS
Sequence of recombinant P. falciparum cGMP-dependent protein kinase (PfPKG) (Q8I719 whole entry): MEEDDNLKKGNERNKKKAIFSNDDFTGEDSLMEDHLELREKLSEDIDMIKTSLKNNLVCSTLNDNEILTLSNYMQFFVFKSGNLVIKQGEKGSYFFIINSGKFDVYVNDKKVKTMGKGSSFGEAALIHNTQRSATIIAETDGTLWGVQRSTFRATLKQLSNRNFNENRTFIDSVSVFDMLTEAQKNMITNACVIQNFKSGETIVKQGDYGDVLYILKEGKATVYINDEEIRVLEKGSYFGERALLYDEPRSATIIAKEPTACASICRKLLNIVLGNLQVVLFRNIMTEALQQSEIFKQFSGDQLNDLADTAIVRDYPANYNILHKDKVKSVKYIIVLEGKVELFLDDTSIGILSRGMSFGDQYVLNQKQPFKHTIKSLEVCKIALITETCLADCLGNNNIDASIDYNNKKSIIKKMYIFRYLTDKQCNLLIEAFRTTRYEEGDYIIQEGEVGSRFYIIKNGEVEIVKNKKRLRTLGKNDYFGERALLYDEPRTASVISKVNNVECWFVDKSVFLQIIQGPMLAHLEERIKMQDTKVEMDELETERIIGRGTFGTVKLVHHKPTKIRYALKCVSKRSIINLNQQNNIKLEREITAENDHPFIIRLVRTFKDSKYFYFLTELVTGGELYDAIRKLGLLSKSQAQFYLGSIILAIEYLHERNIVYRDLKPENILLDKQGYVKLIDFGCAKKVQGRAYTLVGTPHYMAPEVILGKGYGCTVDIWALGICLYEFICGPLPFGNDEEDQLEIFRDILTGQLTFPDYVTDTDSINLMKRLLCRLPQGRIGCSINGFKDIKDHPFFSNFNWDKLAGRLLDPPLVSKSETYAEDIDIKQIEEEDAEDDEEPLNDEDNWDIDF

In the case of `Cc1cccc(Cc2nn(C(C)(C)C)c3ncnc(N)c23)c1` [3MBPP1], the “effect on microneme secretion and invasion of host cells” value [1] is listed as “block in microneme secretion and subsequent invasion of host cells”.
Work on `CCOc1ccc2cc(-c3nn(CC4CCN(C)CC4)c4ncnc(N)c34)ccc2c1` [compound 1294] yielded an IC50 [2] greater than 2000 nM, an EC50 (CDPK1 T145M parasites) of 6970 nM and an IC50 [3] of 262 nM. For the same molecule, the IC50 (recombinant PfCDPK1 WT [4]) was 162 nM, the “fold-greater effect in vitro on wild-type enzyme than on methionine mutant” value (recombinant PfCDPK1 WT [5]) was 10 fold and the EC50 [6] was 10900 nM.
In the case of `CCOc1ccc2cc(-c3nn(CC4CCN(C)CC4)c4ncnc(N)c34)ccc2n1` [compound 1369], the IC50 [2] is reported as greater than 2000 nM, the IC50 [3] is reported as greater than 2000 nM and the IC50 (recombinant PfCDPK1 WT [4]) is reported as 438 nM.
